In the experiment the test system is HCT116 colon cancer cells. Briefly: KSP Cellular Assay (percent of cells staining positive for Phos-Histone H3 / Phos-MPM2). Format: cell-based. The following applies: Homo sapiens, HCT116 cells, 16 hours with drug. The procedure, abridged: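 HCT116 cells treated with compound for 16 hours, fixed and stained with Hoechst plus Phos-Histone H3 (ser10) and Phos-MPM2 antibodies. Percent positive cells from immunofluorescence imaging; EC50 by sigmoidal nonlinear regression over 8-point dilutions in duplicate.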

The mark [1] stands for this setting: HCT-116, 16 h, Table 401, read-out: ED50 (nM) Range.
Setting [2] is: HCT-116, 16 h, Table 101, read-out: ED50 (nM) Range.
The mark [3] stands for this setting: HCT-116, 16 h, table of Example 1801 (headed Table 1201), read-out: EC50 (nM) Range.
Setting [4] is: HCT-116, 16 h, table of Example 2101, read-out: EC50 (nM) Range.
Setting [5] is: HCT-116, 16 h, Table 801, read-out: EC50 (nM) Range.

Molecules are shown by their SMILES. Where two headings read alike, the source gives them in different places.

`O=C(CCCN1CCOCC1)N1N=C(c2cc(F)ccc2F)SC12CCOc1ccccc12` (centres unmarked) [compound 495]: the EC50 under setting [1] was above 500 nM.

As to `O=C(c1cccnc1)N1N=C(c2cc(F)ccc2F)SC12CCOc1ccccc12` (centres unmarked) [compound 431], the EC50 under setting [1] was above 1000 nM.

As to `CC(=O)N1CCC2(CC1)CC1(SC(c3cc(F)ccc3F)=NN1C(C)=O)c1ccccc1O2` (centres unmarked) [compound 126], the EC50 under setting [2] was above 1000 nM.

As for `CC(C)CC(=O)N1N=C(c2cc(F)ccc2F)SC12CCOc1ccccc12` (centres unmarked) [compound 468], under setting [1], the EC50 is above 1000 nM.

On to `NCC[C@@H]1COc2ccccc2[C@@]12SC(c1cc(F)ccc1F)=NN2C(=O)N1CCOCC1` [compound 2205], for which the EC50 (HCT-116, 16 h, table of Example 2201, read-out: EC50 (nM) Range) is above 1000 nM.

Turning to `CO[C@@H](C)C(=O)N1N=C(c2cc(F)ccc2F)S[C@]12c1cc(F)cc(F)c1OC[C@@H]2CCN` [compound 1908], where the note is “HCT-116, 16 h, table of Example 1901, read-out: EC50 (nM) Range”, the EC50 is above 1000 nM.

As for `CN(C)C(=O)N1N=C(c2cc(F)ccc2F)SC12CCc1ccccc12` (centres unmarked) [compound 602], the EC50 (HCT-116, 16 h, Table 601, read-out: EC50 (nM) Range) fell in the range of 500 to 1000 nM.

With `CC(=O)N1N=C(c2cc(F)cc(F)c2)S[C@@]12c1ccccc1OC[C@H]2CCN` [compound 1815], under setting [3], the EC50 was at most 500 nM.

For the compound `CCOC(=O)N1N=C(c2cc(F)ccc2F)S[C@@]12c1cc(F)ccc1OC[C@H]2CCN` (single isomer, unassigned) [compound 2101], the EC50 under setting [4] was at most 500 nM.

In the case of `CCOC(=O)N1N=C(c2cc(F)ccc2F)S[C@]12c1ccccc1OC[C@@H]2CCN` [compound 2104], the EC50 under setting [4] is at most 500 nM.

On to `CC(=O)N1N=C(c2cc(F)ccc2F)S[C@@]12CCc1ccccc12` [compound 118], for which the EC50 under setting [2] was at most 500 nM.

Regarding `COCC(=O)N1N=C(c2cc(F)ccc2F)SC12CCOc1ccccc12` (centres unmarked) [compound 466], the EC50 under setting [1] was above 1000 nM.

Take `CC(C)(C)C(=O)N1N=C(c2cc(F)ccc2F)SC12CCOc1ccccc12` (centres unmarked) [compound 430]: the EC50 under setting [1] is above 1000 nM.

As to `CC(=O)N1N=C(c2cc(F)ccc2F)SC12CCCc1ccsc12` (centres unmarked) [compound 107], the EC50 under setting [2] is above 500 nM.

Consider `NCCCC(=O)N1N=C(c2cc(F)ccc2F)S[C@@]12CCOc1ccccc12` [compound 459], for which the EC50 under setting [1] was above 500 nM.

`CC(=O)N1N=C(c2cc(F)ccc2F)S[C@]12c1cccc(F)c1OC[C@@H]2CCN` [compound 810]: the EC50 under setting [5] was above 1000 nM.

As to `CC(=O)N1N=C(c2cc(F)ccc2F)S[C@]12c1ccccc1NC[C@@H]2CCO` [compound 2501], under “HCT-116, 16 h, table of Example 2501, read-out: EC50 (nM) Range”, the EC50 was at most 500 nM.

Consider `NCC[C@@H]1COc2ccccc2[C@@]12SC(c1cc(F)ccc1F)=NN2C(=O)CF` [compound 2002], for which the EC50 (HCT-116, table of Example 2001, read-out: EC50 (nM) Range) was at most 500 nM.

Take `CC(=O)N1N=C(c2ccccc2)S[C@]12c1ccccc1OC[C@@H]2CCN` [compound 1809]: under setting [3], the EC50 is above 1000 nM.

Regarding `O=C(c1ccccn1)N1N=C(c2cc(F)ccc2F)SC12CCOc1ccccc12` (centres unmarked) [compound 432], the EC50 under setting [1] was above 1000 nM.

Consider `CC(=O)N1N=C(c2ccc(F)c(F)c2)S[C@]12c1cc(F)ccc1OC[C@@H]2CCN` [compound 1823], for which, under setting [3], the EC50 is above 1000 nM.

Turning to `CC(=O)N1N=C(c2cc(F)cc(F)c2)S[C@]12c1ccccc1OC[C@@H]2CCN` [compound 1818], the EC50 under setting [3] was above 1000 nM.

As for `N[C@H]1C[C@@H](C(=O)N2N=C(c3cc(F)ccc3F)SC23CCc2ccccc23)C1` (some centres unmarked) [compound 501], under setting [1], the EC50 is at most 500 nM.

`CC(=O)N1N=C(c2cc(F)ccc2F)S[C@]12c1cc(F)ccc1NC[C@@H]2CCN` [compound 2904]: for the setting “HCT-116, 16 h, table of Example 2901, read-out: EC50 (nM) Range”, the EC50 was above 1000 nM.

With `CNCCCC(=O)N1N=C(c2cc(F)ccc2F)SC12CCc1ccccc12` (centres unmarked) [compound 453], the EC50 under setting [1] was above 500 nM.

As for `Fc1ccc(F)c(C2=NN3CCC4COc5ccccc5C43S2)c1` (centres unmarked) [compound 2302], the EC50 (HCT-116, 16 h, table of Example 2301, read-out: EC50 (nM) Range) is above 1000 nM.

As to `CC(=O)N1N=C(c2cc(F)ccc2F)S[C@@]12c1ccccc1OC[C@H]2CCN` [compound 815], the EC50 under setting [5] is at most 500 nM.

For the compound `NCCN1N=C(c2cc(F)ccc2F)SC12CCOc1ccccc12` (centres unmarked) [compound 701], the EC50 (HCT-116, 16 h, Table 701, read-out: EC50 (nM) Range) was above 1000 nM.

Take `CC(=O)N1N=C(c2cc(C(F)(F)F)ccc2F)S[C@]12c1ccccc1OC[C@@H]2CCN` [compound 1807]: the EC50 under setting [3] was above 1000 nM.

With `NC1CCC(C(=O)N2N=C(c3cc(F)ccc3F)SC23CCc2ccccc23)C1` (centres unmarked) [compound 440], the EC50 under setting [1] is at most 500 nM.

With `CCOC(=O)N1N=C(c2cc(F)ccc2F)S[C@]12c1cc(F)ccc1OC[C@@H]2CCN` [compound 2102], the EC50 under setting [4] was above 1000 nM.

For the compound `CC(=O)N1N=C(c2cc(F)ccc2F)S[C@@]12c1ccccc1OC[C@H]2CCCN` [compound 1004], for the setting “HCT-116, 16 h, table of Example 1004, read-out: EC50 (nM) Range”, the EC50 was at most 500 nM.

Regarding `CC(=O)N1N=C(c2ccc(F)cc2F)S[C@]12c1cc(F)ccc1OC[C@@H]2CCN` [compound 1822], the EC50 under setting [3] was above 1000 nM.

With `CC(=O)N1N=C(c2cc(F)ccc2F)S[C@]12c1ccccc1C[C@@H]2CC#N` [compound 907], the EC50 (HCT-116, 16 h, table of Example 901, read-out: EC50 (nM) Range) was at most 500 nM.

Regarding `O=C(CC1CCCNC1)N1N=C(c2cc(F)ccc2F)SC12CCOc1ccccc12` (centres unmarked) [compound 483], under setting [1], the EC50 was in the range of 500 to 1000 nM.

(Values after patent US8796460B2, “Compounds for inhibiting KSP kinesin activity” (Mercky Sharp & Dohme Corp., priority 2007, dated 2014).)
